# Measured values published in publication PMC9492542, “Brain-restricted mTOR inhibition with binary pharmacology” (Nature, 2022).
# Where “and” joins values, the source holds several entries; their conditions need not be identical. Equal values may be shown once. Read-outs that look alike come from different tables or passages of the source.
# What was measured:
# [1] = target: 476 purified kinases (Homo sapiens, UniProt Q9NRM7)
# Protocol: (§1) In vitro kinase inhibition assays were performed by SelectScreen Services (Thermo Fisher Scientific) using either Z’-LYTE (mTOR, Src, Csk, EGFR, HER2 and HGK), Adapta (LRRK2) or LanthaScreen (DDR2) assay format (standardized protocols can be accessed on the SelectScreen website: https://www.thermofisher.com/us/en/home/products-and-services/services/custom-services/screening-and-profiling-services/selectscreen-profiling-service/selectscreen-kinase-profiling-service.html. When indicated, recombinant FKBP12 protein was added to the assay mixture to a final concentration of 10 µM.
# [2] = target: 476 purified kinases (Homo sapiens, UniProt P45985)
# Chain of 476 purified kinases (Homo sapiens, UniProt P45985) (P45985 whole entry): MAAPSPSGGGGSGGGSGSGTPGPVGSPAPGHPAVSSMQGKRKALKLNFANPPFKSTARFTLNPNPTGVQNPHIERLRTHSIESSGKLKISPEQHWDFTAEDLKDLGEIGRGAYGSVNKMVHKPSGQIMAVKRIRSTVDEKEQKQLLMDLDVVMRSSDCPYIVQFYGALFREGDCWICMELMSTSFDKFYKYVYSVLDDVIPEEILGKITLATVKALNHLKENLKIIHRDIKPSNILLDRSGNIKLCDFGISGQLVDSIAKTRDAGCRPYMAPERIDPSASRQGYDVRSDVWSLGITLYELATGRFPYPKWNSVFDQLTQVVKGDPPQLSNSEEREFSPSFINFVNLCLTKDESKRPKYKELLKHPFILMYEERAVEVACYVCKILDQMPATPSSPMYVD
# Protocol: as §1
# [3] = target: 476 purified kinases (Homo sapiens, UniProt Q8WXR4)
# Protocol: as §1
# [4] = target: 476 purified kinases (Homo sapiens, UniProt O75716)
# Chain of 476 purified kinases (Homo sapiens, UniProt O75716) (O75716 whole entry): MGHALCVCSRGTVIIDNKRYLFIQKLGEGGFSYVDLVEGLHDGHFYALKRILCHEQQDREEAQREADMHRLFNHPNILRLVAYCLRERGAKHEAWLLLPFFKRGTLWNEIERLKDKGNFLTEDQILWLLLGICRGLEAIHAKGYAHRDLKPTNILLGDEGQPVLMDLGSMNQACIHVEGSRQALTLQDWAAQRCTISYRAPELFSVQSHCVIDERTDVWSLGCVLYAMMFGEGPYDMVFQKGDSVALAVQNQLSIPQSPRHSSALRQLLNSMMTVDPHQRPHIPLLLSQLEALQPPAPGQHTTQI
# Protocol: as §1
# [5] = target: 476 purified kinases (Homo sapiens, UniProt Q8IY84); conditions: ZLYTE
# Chain of 476 purified kinases (Homo sapiens, UniProt Q8IY84) (Q8IY84 whole entry): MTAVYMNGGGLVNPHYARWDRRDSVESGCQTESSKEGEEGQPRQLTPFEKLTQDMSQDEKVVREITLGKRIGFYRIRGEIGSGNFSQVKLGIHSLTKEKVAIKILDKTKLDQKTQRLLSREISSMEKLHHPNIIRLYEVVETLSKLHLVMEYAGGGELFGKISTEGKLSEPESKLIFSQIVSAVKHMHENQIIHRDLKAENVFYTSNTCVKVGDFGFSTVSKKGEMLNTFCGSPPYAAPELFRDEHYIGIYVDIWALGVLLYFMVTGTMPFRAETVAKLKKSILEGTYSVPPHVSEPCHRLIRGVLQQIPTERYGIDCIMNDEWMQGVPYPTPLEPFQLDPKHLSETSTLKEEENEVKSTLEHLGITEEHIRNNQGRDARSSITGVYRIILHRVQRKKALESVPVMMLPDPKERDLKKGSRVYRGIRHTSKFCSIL
# Protocol: as §1
# [6] = target: T1, 476 purified kinases (Homo sapiens, UniProt P52564); conditions: for MAP2K6 (MKK6) (kinase profiling): ZLYTE
# T1 sequence (P52564 1-334): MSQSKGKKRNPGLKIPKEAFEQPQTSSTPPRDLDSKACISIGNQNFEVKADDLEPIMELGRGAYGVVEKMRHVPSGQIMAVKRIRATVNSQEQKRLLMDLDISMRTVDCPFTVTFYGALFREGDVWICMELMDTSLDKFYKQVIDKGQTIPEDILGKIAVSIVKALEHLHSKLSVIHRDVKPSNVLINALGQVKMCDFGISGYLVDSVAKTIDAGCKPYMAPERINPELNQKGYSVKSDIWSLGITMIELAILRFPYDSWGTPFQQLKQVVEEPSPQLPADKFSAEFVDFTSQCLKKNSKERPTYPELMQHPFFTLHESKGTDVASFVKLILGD
# Protocol: as §1
# [7] = target: 476 purified kinases (Homo sapiens, UniProt Q9Y2H1)
# Protocol: as §1
# [8] = target: 476 purified kinases (Homo sapiens, UniProt P48426)
# Chain of 476 purified kinases (Homo sapiens, UniProt P48426) (P48426 whole entry): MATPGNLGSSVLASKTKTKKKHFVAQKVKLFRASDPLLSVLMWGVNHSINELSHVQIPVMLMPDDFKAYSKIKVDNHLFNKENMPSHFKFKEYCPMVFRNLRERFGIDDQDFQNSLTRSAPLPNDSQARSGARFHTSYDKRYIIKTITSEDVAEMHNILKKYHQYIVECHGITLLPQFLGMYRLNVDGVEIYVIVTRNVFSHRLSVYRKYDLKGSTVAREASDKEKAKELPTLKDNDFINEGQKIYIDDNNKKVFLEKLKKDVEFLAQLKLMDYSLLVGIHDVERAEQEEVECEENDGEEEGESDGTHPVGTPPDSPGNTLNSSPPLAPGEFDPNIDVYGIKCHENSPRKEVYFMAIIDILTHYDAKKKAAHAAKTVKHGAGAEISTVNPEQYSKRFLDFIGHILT
# Protocol: as §1
# [9] = target: 476 purified kinases (Homo sapiens, UniProt Q09013)
# Protocol: as §1
# [10] = target: 476 purified kinases (Homo sapiens, UniProt Q9UEW8)
# Protocol: as §1
# [11] = target: 476 purified kinases (Homo sapiens, UniProt Q00537); conditions: ZLYTE
# Chain of 476 purified kinases (Homo sapiens, UniProt Q00537) (Q00537 whole entry): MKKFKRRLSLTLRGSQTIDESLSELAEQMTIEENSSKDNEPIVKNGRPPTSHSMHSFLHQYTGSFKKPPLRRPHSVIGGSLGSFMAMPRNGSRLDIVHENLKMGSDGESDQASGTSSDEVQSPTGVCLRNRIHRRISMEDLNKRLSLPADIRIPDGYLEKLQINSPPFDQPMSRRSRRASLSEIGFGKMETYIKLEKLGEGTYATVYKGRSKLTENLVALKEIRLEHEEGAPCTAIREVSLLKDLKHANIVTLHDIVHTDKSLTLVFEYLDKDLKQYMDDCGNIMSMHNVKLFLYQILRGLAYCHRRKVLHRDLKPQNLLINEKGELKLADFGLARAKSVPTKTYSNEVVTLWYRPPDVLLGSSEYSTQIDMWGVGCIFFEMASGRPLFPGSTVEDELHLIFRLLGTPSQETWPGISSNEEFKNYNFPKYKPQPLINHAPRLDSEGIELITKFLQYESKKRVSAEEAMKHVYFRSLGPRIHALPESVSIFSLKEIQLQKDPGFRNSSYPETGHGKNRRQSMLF
# Protocol: as §1
# [12] = target: 476 purified kinases (Homo sapiens, UniProt O43318); conditions: 10 nM compound + 10 µM FKBP12
# Protocol: as §1
# [13] = target: 476 purified kinases (Homo sapiens, UniProt P49761); conditions: ZLYTE
# Chain of 476 purified kinases (Homo sapiens, UniProt P49761) (P49761 whole entry): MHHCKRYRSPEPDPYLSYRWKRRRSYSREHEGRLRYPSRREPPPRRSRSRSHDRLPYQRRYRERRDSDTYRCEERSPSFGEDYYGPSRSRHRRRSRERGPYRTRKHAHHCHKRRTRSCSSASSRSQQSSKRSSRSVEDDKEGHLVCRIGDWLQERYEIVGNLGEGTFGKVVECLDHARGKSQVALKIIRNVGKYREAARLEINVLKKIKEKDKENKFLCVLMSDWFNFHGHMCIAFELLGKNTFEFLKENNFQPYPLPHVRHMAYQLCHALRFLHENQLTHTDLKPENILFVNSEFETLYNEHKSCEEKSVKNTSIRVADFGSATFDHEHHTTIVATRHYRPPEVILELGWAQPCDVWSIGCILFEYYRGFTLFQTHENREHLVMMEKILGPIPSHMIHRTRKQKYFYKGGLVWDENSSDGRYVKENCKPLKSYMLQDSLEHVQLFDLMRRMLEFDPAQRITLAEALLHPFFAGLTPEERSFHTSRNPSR
# Protocol: as §1
# [14] = target: 476 purified kinases (Homo sapiens, UniProt Q13705)
# Chain of 476 purified kinases (Homo sapiens, UniProt Q13705) (Q13705 19-512): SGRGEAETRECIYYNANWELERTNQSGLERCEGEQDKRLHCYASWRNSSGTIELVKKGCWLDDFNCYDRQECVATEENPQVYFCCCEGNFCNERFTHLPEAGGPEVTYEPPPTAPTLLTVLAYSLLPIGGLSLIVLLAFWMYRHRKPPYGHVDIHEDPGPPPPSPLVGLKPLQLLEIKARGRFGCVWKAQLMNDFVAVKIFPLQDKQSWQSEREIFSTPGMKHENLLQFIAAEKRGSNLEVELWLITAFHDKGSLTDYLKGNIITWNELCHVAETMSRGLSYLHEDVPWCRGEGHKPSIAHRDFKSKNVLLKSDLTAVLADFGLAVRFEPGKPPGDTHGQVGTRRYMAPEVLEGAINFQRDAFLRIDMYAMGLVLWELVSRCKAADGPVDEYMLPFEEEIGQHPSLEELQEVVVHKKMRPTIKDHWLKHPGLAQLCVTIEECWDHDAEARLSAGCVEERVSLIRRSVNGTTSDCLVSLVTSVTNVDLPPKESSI
# Protocol: as §1
# [15] = target: 476 purified kinases (Homo sapiens, UniProt Q15139); conditions: ZLYTE
# Protocol: as §1
# [16] = target: 476 purified kinases (Homo sapiens, UniProt Q14012); conditions: Adapta
# Chain of 476 purified kinases (Homo sapiens, UniProt Q14012) (Q14012 whole entry): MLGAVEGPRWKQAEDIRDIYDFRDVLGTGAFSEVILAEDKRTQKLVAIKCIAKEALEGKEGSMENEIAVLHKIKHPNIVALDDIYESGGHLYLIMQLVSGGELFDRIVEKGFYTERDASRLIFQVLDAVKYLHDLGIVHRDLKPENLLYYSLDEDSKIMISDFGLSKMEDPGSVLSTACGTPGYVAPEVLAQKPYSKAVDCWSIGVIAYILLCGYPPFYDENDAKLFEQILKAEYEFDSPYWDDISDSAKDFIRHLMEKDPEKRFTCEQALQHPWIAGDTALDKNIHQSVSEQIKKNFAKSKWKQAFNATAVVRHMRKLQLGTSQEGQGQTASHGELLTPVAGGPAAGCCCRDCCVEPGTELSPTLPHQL
# Protocol: as §1
# [17] = target: 476 purified kinases (Homo sapiens, UniProt Q8N752); conditions: ZLYTE
# Chain of 476 purified kinases (Homo sapiens, UniProt Q8N752) (Q8N752 whole entry): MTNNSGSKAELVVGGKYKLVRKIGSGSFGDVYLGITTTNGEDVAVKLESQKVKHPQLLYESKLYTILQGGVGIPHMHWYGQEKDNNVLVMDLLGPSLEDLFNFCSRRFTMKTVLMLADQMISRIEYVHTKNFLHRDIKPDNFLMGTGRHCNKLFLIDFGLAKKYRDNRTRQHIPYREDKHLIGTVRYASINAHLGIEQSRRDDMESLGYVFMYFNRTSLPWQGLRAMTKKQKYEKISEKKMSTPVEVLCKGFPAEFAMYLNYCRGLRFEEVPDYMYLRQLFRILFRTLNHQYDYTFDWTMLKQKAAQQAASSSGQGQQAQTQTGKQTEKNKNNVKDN
# Protocol: as §1
# [18] = target: 476 purified kinases (Homo sapiens, UniProt P22612)
# Chain of 476 purified kinases (Homo sapiens, UniProt P22612) (P22612 whole entry): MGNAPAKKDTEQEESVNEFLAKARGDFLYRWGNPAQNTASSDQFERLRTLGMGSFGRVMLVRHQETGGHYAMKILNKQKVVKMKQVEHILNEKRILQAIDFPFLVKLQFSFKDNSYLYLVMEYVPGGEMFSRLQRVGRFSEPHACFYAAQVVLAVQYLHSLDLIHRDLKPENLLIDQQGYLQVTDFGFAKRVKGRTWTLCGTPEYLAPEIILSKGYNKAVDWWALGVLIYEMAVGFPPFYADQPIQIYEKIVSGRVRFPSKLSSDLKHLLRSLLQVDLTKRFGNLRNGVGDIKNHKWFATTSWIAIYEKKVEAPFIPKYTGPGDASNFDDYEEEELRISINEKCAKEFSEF
# Protocol: as §1
# [19] = target: 476 purified kinases (Homo sapiens, UniProt O00311)
# Chain of 476 purified kinases (Homo sapiens, UniProt O00311) (O00311 whole entry): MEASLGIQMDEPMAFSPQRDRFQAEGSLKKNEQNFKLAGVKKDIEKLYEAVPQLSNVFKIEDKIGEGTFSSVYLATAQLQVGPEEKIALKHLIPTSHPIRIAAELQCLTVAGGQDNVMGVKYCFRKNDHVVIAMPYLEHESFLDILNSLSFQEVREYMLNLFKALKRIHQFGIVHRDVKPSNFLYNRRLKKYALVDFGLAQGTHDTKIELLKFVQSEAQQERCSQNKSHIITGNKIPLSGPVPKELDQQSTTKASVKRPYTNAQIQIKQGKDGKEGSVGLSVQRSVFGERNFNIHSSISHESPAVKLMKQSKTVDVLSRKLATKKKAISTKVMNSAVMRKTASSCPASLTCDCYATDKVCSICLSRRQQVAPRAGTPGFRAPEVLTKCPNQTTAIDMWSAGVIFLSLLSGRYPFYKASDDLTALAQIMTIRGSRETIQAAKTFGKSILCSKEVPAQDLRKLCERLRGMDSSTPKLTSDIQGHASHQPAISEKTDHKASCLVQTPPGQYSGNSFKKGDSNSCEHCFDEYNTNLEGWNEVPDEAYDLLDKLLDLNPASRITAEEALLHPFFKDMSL
# Protocol: as §1
# [20] = test system: GBM43; assay: Orthotopic intracranial GBM43-luciferase patient-derived glioblastoma xenograft; conditions: GBM43-Luc
# [21] = target: MTORC1; assay: Equilibrium constants for mTORC1 binding used in the model; conditions: read-out: Kd4 (drug binding to MTORC1 without FKBP); estimated, affinity of the TORKi portion for MTORC1
# [22] = test system: mTOR; assay: Immunoblot analysis of mTOR signalling (p-S6, p-4EBP1) in MCF7 cells, incl. screen for blocking of rapamycin/RapaLink-1
# [23] = test system: mTOR; assay: mTOR signalling in mouse whole brain and skeletal muscle after single i.p. dose (immunoblot, insulin stimulated); type: in vivo; conditions: for p-4EBP1 Brain, fold relative to no insulin, normalized to GAPDH / p-4EBP1 Muscle, fold relative to no insulin, normalized to GAPDH / p-RPS6 Brain, fold relative to no insulin, normalized to GAPDH / p-RPS6 Muscle, fold relative to no insulin, normalized to GAPDH: RL1 1 mg/kg, RB 40 mg/kg, insulin 250 mU, listed as RL1
# Protocol: Whole brain and skeletal muscle were analyzed by immunoblot.
# [24] = test system: human PBMCs; assay: IL-2 secretion of stimulated PBMCs (sandwich ELISA); type: cell-based; design: unit not given here
# [25] = BALB/c nu/nu mice, RapaLink-1 1 mg per kg, RapaBlock 40 mg per kg, 4 h or 24 h
smiles,measurement,setting,value
Cc1nc(Nc2ncc(C(=O)Nc3c(C)cccc3Cl)s2)cc(N2CCN(CCO)CC2)n1 [Dasatinib],LATS2 (LanthaScreen Binding),[1]; 10 nM compound,3
same,LATS2 (LanthaScreen Binding),[1]; 10 nM compound + 10 µM FKBP12,2
same,MAP2K4 (MEK4) (LanthaScreen Binding),[2]; 10 nM compound,-1
same,MAP2K4 (MEK4) (LanthaScreen Binding),[2]; 10 nM compound + 10 µM FKBP12,-2
same,MYO3B (MYO3 beta) (LanthaScreen Binding),[3]; 10 nM compound,3
same,MYO3B (MYO3 beta) (LanthaScreen Binding),[3]; 10 nM compound + 10 µM FKBP12,8
same,STK16 (PKL12) (LanthaScreen Binding),[4]; 10 nM compound,-1
same,STK16 (PKL12) (LanthaScreen Binding),[4]; 10 nM compound + 10 µM FKBP12,-1
same,NIM1K (kinase profiling),[5]; 10 nM,7
same,NIM1K (kinase profiling),[5]; 10 nM + 10 µM FKBP12,17
same,MAP2K6 (MKK6) (LanthaScreen Binding),[6]; 10 nM compound,-3
same,MAP2K6 (MKK6) (LanthaScreen Binding),[6]; 10 nM compound + 10 µM FKBP12,8
same,MAP2K6 (MKK6) (kinase profiling),[6]; 10 nM,9
same,MAP2K6 (MKK6) (kinase profiling),[6]; 10 nM + 10 µM FKBP12,8
same,STK38L (NDR2) (LanthaScreen Binding),[7]; 10 nM compound,-2
same,STK38L (NDR2) (LanthaScreen Binding),[7]; 10 nM compound + 10 µM FKBP12,-3
same,PIP4K2A (Adapta),[8]; 10 nM compound,-15
same,PIP4K2A (Adapta),[8]; 10 nM compound + 10 µM FKBP12,4
same,DMPK (LanthaScreen Binding),[9]; 10 nM compound,1
same,DMPK (LanthaScreen Binding),[9]; 10 nM compound + 10 µM FKBP12,4
same,STK39 (STLK3) (LanthaScreen Binding),[10]; 10 nM compound,4
same,STK39 (STLK3) (LanthaScreen Binding),[10]; 10 nM compound + 10 µM FKBP12,-5
same,CDK17/cyclin Y (kinase profiling),[11]; 10 nM,7
same,CDK17/cyclin Y (kinase profiling),[11]; 10 nM + 10 µM FKBP12,8
same,MAP3K7/MAP3K7IP1 (TAK1-TAB1) (LanthaScreen Binding),[12],-7
same,CLK3 (kinase profiling),[13]; 10 nM,6
same,CLK3 (kinase profiling),[13]; 10 nM + 10 µM FKBP12,11
same,ACVR2B (LanthaScreen Binding),[14]; 10 nM compound,5
same,ACVR2B (LanthaScreen Binding),[14]; 10 nM compound + 10 µM FKBP12,12
same,PRKD1 (PKC mu) (kinase profiling),[15]; 10 nM,10
same,PRKD1 (PKC mu) (kinase profiling),[15]; 10 nM + 10 µM FKBP12,12
same,CAMK1 (CaMK1) (kinase profiling),[16]; 10 nM,-14
same,CAMK1 (CaMK1) (kinase profiling),[16]; 10 nM + 10 µM FKBP12,28
same,CSNK1A1L (kinase profiling),[17]; 10 nM,2
same,CSNK1A1L (kinase profiling),[17]; 10 nM + 10 µM FKBP12,2
same,PRKACG (PRKAC gamma) (LanthaScreen Binding),[18]; 10 nM compound,0
same,PRKACG (PRKAC gamma) (LanthaScreen Binding),[18]; 10 nM compound + 10 µM FKBP12,6
same,CDC7/DBF4 (LanthaScreen Binding),[19]; 10 nM compound,7
same,CDC7/DBF4 (LanthaScreen Binding),[19]; 10 nM compound + 10 µM FKBP12,16
CO[C@H]1C[C@@H]2CC[C@@H](C)[C@@](O)(O2)C(=O)C(=O)N2CCCC[C@H]2C(=O)O[C@H]([C@H](C)C[C@@H]2CC[C@@H](OCCOCc3cn(CCOCCOCCOCCOCCOCCOCCOCCOCCC(=O)NCCCCn4nc(-c5ccc6oc(N)nc6c5)c5c(N)ncnc54)nn3)[C@H](OC)C2)CC(=O)[C@H](C)/C=C(\C)[C@@H](O)[C@@H](OC)C(=O)[C@H](C)C[C@H](C)/C=C/C=C/C=C/1C [RapaLink-1],Mouse weight,"[20]; day 0, individual mice",23.5 g and 21.9 g and 22.3 g and 22.1 g and 19.3 g and 21.6 g
same,Tumor size (measured by bioluminescence),"[20]; day 0, individual mice",9520000 and 3020000 and 1670000 and 519000 and 248000 and 80200
same,Mouse weight,"[20]; day 4, individual mice",22.9 g and 20.8 g and 22.2 g (2×) and 23.1 g and 20.1 g
same,Tumor size (measured by bioluminescence),"[20]; day 4, individual mice",1310000 and 940000 and 1040000 and 482000 and 175000 and 141000
same,Mouse weight,"[20]; day 7, individual mice",22.7 g and 19.8 g and 21.2 g and 20.8 g and 19.6 g and 22.9 g
same,Tumor size (measured by bioluminescence),"[20]; day 7, individual mice",121000000 and 131000000 and 102000000 and 25200000 and 4850000
same,Mouse weight,"[20]; day 10, individual mice",20.5 g and 20.2 g and 21.6 g and 20.6 g and 19.4 g and 22 g
same,Tumor size (measured by bioluminescence),"[20]; day 10, individual mice",686000000 and 671000000 and 515000000 and 1100000000 and 3050000000 and 2140000
same,Mouse survival,"[20]; individual mice, listed as RL-1",17 days and 18 days and 19 days
same,Kd,[21],5 nM
same,phospho-S6 (S240/244) and phospho-4EBP (T37/46) levels,"[22]; MCF7, 10 nM RapaLink-1",almost undetectable levels
same,phospho-S6 (S240/244) and phospho-4EBP (T37/46) levels,"[22]; MCF7, 10 nM RapaLink-1 + 10 µM FK506",showed no effect on either marker
same,"p-4EBP1 Brain, fold relative to no insulin, normalized to GAPDH",[23]; 4h,1.26 and 1.03 and 0.71
same,"p-4EBP1 Muscle, fold relative to no insulin, normalized to GAPDH",[23]; 4h,1 and 1.04 and 1.12
same,"p-RPS6 Brain, fold relative to no insulin, normalized to GAPDH",[23]; 4h,1.23 and 1.15 and 1.11
same,"p-RPS6 Muscle, fold relative to no insulin, normalized to GAPDH",[23]; 4h,0.9 and 1.3 and 1.14
same,"p-4EBP1 Brain, fold relative to no insulin, normalized to GAPDH",[23]; 24h,0.98 and 0.96 and 0.78
same,"p-4EBP1 Muscle, fold relative to no insulin, normalized to GAPDH",[23]; 24h,1.18 and 1.08 and 1.1
same,"p-RPS6 Brain, fold relative to no insulin, normalized to GAPDH",[23]; 24h,0.89 and 0.78 and 1.52
same,"p-RPS6 Muscle, fold relative to no insulin, normalized to GAPDH",[23]; 24h,1.11 and 1.39
same,"mTOR activity in brain (p-S6, p-4EBP1)",[23]; [25],potently inhibited mTOR signalling in both skeletal muscle and brain tissues
same,"mTOR activity in skeletal muscle (p-S6, p-4EBP1)",[23]; [25],potently inhibited mTOR signalling in both skeletal muscle and brain tissues
same,IL-2 secretion,"[24]; 0.005081 nM RapaLink-1, +10 μM RapaBlock",4596.86 and 6574.88 and 5859.62
same,IL-2 secretion,"[24]; 0.005081 nM RapaLink-1, No RapaBlock",6581.16 and 6332.27 and 5840.51
same,IL-2 secretion,"[24]; 0.015242 nM RapaLink-1, +10 μM RapaBlock",4621.98 and 5392.72 and 5694.48
same,IL-2 secretion,"[24]; 0.015242 nM RapaLink-1, No RapaBlock",6342.48 and 6161.37 and 6860.66
same,IL-2 secretion,"[24]; 0.045725 nM RapaLink-1, +10 μM RapaBlock",5493.48 and 5276.26 and 6056.43
same,IL-2 secretion,"[24]; 0.045725 nM RapaLink-1, No RapaBlock",6261.35 and 6059.04 and 6285.42
same,IL-2 secretion,"[24]; 0.137174 nM RapaLink-1, +10 μM RapaBlock",4501.07 and 6329.65 and 6310.02
same,IL-2 secretion,"[24]; 0.137174 nM RapaLink-1, No RapaBlock",6367.08 and 6367.6 and 6351.64
same,IL-2 secretion,"[24]; 0.411523 nM RapaLink-1, +10 μM RapaBlock",5797.33 and 5310.02 and 6522.53
same,IL-2 secretion,"[24]; 0.411523 nM RapaLink-1, No RapaBlock",6337.77 and 6266.32 and 6532.48
same,IL-2 secretion,"[24]; 1.23457 nM RapaLink-1, +10 μM RapaBlock",5361.84 and 6623.29 and 6201.15
same,IL-2 secretion,"[24]; 1.23457 nM RapaLink-1, No RapaBlock",2712.8 and 2327.56 and 3337.76
same,IL-2 secretion,"[24]; 3.7037 nM RapaLink-1, +10 μM RapaBlock",5860.66 and 6735.83 and 6648.15
same,IL-2 secretion,"[24]; 3.7037 nM RapaLink-1, No RapaBlock",362.628 and 408.689 and 558.388
same,IL-2 secretion,"[24]; 11.1111 nM RapaLink-1, +10 μM RapaBlock",4848.63 and 4895.73 and 6502.64
same,IL-2 secretion,"[24]; 11.1111 nM RapaLink-1, No RapaBlock",251.4 and 437.215 and 324.156
same,IL-2 secretion,"[24]; 33.3333 nM RapaLink-1, +10 μM RapaBlock",4350.33 and 5093.33 and 4877.15
same,IL-2 secretion,"[24]; 33.3333 nM RapaLink-1, No RapaBlock",275.478 and 292.227 and 264.486
same,IL-2 secretion,"[24]; 100 nM RapaLink-1, +10 μM RapaBlock",2837.9 and 2542.68 and 2708.61
same,IL-2 secretion,"[24]; 100 nM RapaLink-1, No RapaBlock",278.356 and 273.907 and 280.974
